Patent US20160256460A1, “ACTIVATORS OR STIMULATORS OF SOLUBLE GUANYLATE CYCLASE FOR USE IN TREATING CHRONIC FATIGUE SYNDROME” (BERGEN TEKNOLOGIOVERFØRING AS, priority 2013, published 2016)

System: ME/CFS patient
Assay: Case report: oral riociguate (Adempas) in one ME/CFS patient
Format: in vivo, human
Protocol: It is understood that the examples illustrate the invention further without limiting the same. The patient is a person. They have had ME/CFS for 10 years, starting after a Giardia Lamblia infection. They have a disease severity varying between moderate and mild, but with moderate severity the last month prior to start of Riociguat. They have a typical ME/CFS and fulfils Canadian criteria. […] They started with only 0.5 mg once daily, gradually increasing to 0.5 two times daily after a few days and again to 0.5 mg three times daily on day six. […] The dose was increased to 1 mg+0.5 mg+1 mg starting from day seven and, in addition, starting from day nine increased to 1 mg three times daily. […] They told the clinicians of the improvement of their ME/CFS symptoms. They experienced this improvement to be significant and not within the usual range of symptom variation of their ME/CFS disease the last months.

**Q.** What does the source list for `COC(=O)N(C)c1c(N)nc(-c2nn(Cc3ccccc3F)c3ncccc23)nc1N` [Riociguat, Methyl 4,6-diamino-2-[1-(2-fluorobenzyl)-1H-pyrazolo[3,4-b]pyridine-3-yl]-5-pyrimidinyl(methyl)carbamate]?
**A.** ME/CFS symptom change reported by the patient (after the first six days, at a dose of 2.5 mg per day): more energy and less fatigue, less brain fog with an improved concentration ability, less hypersensitivity to sound and light, and less feeling of sore throat; benefit on the ME/CFS symptoms (person, moderate ME/CFS, oral 0.5 mg once daily increased to 0.5 mg three times daily on day six, noticed from day six, the next three days): benefit on the ME/CFS symptoms; side effects (same patient, dose increased up to 1 mg three times daily from day nine): no clear side effects
